Measurements published in patent publication US20120157439A1, “RAF INHIBITOR COMPOUNDS AND METHODS OF USE THEREOF” (GENENTECH, INC., priority 2009, published 2012).
Like-named read-outs stand apart in the source and are kept apart here.

Target: T1, V600E full-length B-Raf (Homo sapiens, UniProt P15056, V600E)
T1 construct: 1 μM FSBA-MEK and 20 nM V600E full-length B-Raf; made in house; host or cells: sf9 insect cells (baculovirus)
Test: B-Raf IC50 Assay (B-RAF V600E inhibition assay, Example A)
Format: biochemical
Excerpt: Determining the activity of Raf in the sample is possible by a number of direct and indirect detection methods (US 2004/0082014). Activity of human recombinant B-Raf protein may be assessed in vitro by assay of the incorporation of radio labeled phosphate to recombinant MAP kinase (MEK), a known physiologic substrate of B-Raf, according to US 2004/0127496 and WO 03/022840. The activity/inhibition of V600E full-length B-Raf was estimated by measuring the incorporation of radio labeled phosphate from [γ-33P]ATP into FSBA-modified wild-type MEK (see Example A).
Activity of human recombinant B-Raf protein may be assessed in vitro by assay of the incorporation of radio labeled phosphate to recombinant MAP kinase (MEK), a known physiologic substrate of B-Raf, according to U.S. Patent Appl. Publication No. 2004/0127496 and WO 03/022840. Catalytically active human recombinant B-Raf protein is obtained by purification from sf9 insect cells infected with a human B-Raf recombinant baculovirus expression vector.
The activity/inhibition of V600E full-length B-Raf was estimated by measuring the incorporation of radio labeled phosphate from [γ-33P]ATP into FSBA-modified wild-type MEK. The […] assay mixtures contained 25 mM Na Pipes, pH 7.2, 100 mM KCl, 10 mM MgCl2, 5 mM β-glycerophosphate, 100 μM Na Vanadate, 4 μM ATP, 500 nCi [γ-33P]ATP, 1 μM FSBA-MEK and 20 nM V600E full-length B-Raf. Incubations were carried out at 22° C. in a Costar 3365 plate (Corning). Prior to the assay, the B-Raf and FSBA-MEK were preincubated together in assay buffer at 1.5× (20 μL of 30 nM and 1.5 μM, respectively) for 15 minutes, and the assay was initiated by the addition of 10 μL of […]. Following the 60-minute incubation, the assay mixtures were quenched by the addition of 100 μL of 25% TCA, the plate was mixed on a rotary shaker for 1 minute, and the product was captured on a Perkin-Elmer GF/B filter plate using a Tomtec Mach III Harvester. After sealing the bottom of the plate, 35 μL of Bio-Safe II (Research Products International) scintillation cocktail were added to each well and the plate was top-sealed and counted in a Topcount NXT (Packard).

[1] = B-Raf V600E assay of Example A: less than 100 nM, read-out: IC50
[2] = B-Raf V600E assay of Example A: less than about 1 μM, read-out: IC50
[3] = incorporation of radio labeled phosphate from [γ-33P]ATP into FSBA-modified wild-type MEK, 4 μM ATP, 20 nM V600E full-length B-Raf, 60-minute incubation, 22° C., read-out: BRAF V600E IC50

T1 sequence (P15056 whole entry V600E): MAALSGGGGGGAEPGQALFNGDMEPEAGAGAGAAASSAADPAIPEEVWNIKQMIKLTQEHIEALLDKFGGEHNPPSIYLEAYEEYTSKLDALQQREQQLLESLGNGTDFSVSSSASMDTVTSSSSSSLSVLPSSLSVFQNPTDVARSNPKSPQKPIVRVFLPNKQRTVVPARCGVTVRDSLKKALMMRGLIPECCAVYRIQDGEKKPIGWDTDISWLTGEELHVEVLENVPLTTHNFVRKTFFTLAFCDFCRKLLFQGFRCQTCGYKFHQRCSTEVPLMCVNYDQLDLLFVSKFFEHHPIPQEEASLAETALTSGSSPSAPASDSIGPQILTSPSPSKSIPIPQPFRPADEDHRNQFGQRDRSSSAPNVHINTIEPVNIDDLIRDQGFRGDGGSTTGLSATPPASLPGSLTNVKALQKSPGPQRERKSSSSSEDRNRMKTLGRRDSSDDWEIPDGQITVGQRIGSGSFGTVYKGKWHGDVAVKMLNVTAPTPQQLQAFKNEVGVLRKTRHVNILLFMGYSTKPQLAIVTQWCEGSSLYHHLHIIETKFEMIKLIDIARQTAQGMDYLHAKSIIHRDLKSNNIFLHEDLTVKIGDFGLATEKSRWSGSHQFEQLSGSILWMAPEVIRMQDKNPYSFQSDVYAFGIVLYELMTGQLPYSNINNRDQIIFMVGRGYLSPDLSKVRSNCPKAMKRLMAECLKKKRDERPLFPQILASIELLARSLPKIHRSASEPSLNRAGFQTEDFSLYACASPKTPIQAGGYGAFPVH

IC50 [1] [nM]	IC50 [2] [nM]	IC50 [3] [nM]	Compound
< 100	< 1000	36.5	CCCS(=O)(=O)Nc1ccc(F)c(NC(=O)c2csc3c(NC(C)C)ncnc23)c1F [Example 50, 4-Isopropyl-amino-thieno [3,2-d] pyrimidine-7-carboxylic acid [2,6-difluoro-3-(propane-1-sulfonylamino)-phenyl]-amide]
	< 1000	221	CCCC(C)Nc1ncnc2c(C(=O)Nc3c(F)ccc(NS(=O)(=O)CCC)c3F)csc12 (centres unmarked) [Example 51, 4-(1-Methyl-butylamino)-thieno[3,2-d] pyrimidine-7-carboxylic acid [2,6-difluoro-3-(propane-1-sulfonylamino)-phenyl]-amide]
< 100	< 1000	15.7	CCCS(=O)(=O)Nc1ccc(F)c(NC(=O)c2csc3c(NCCF)ncnc23)c1F [Example 52, 4-(2-Fluoro-ethylamino)-thieno[3,2-d] pyrimidine-7-carboxylic acid [2,6-difluoro-3-(propane-1-sulfonylamino)-phenyl]-amide]
< 100	< 1000	26.5	CCCS(=O)(=O)Nc1ccc(F)c(NC(=O)c2csc3c(NCC(F)F)ncnc23)c1F [Example 53, 4-(2,2-Difluoro-ethylamino)-thieno[3,2-d] pyrimidine-7-carboxylic acid [2,6-difluoro-3-(propane-1-sulfonylamino)-phenyl]-amide]
	< 1000	416	CCCS(=O)(=O)Nc1ccc(F)c(NC(=O)c2csc3c(NC4CCCC4)ncnc23)c1F [Example 54, 4-Cyclopentyl-amino-thieno [3,2-d] pyrimidine-7-carboxylic acid [2,6-difluoro-3-(propane-1-sulfonylamino)-phenyl]-amide]
< 100	< 1000	45.5	CCCS(=O)(=O)Nc1ccc(F)c(NC(=O)c2csc3c(NC4CCC4)ncnc23)c1F [Example 55, 4-Cyclobutyl-amino-thieno [3,2-d] pyrimidine-7-carboxylic acid [2,6-difluoro-3-(propane-1-sulfonylamino)-phenyl]-amide]
< 100	< 1000	75.1	CCCS(=O)(=O)Nc1ccc(F)c(NC(=O)c2csc3c(NCC4CC4)ncnc23)c1F [Example 56, 4-(Cyclopropyl-methylamino)-thieno[3,2-d] pyrimidine-7-carboxylic acid [2,6-difluoro-3-(propane-1-sulfonylamino)-phenyl]-amide]
< 100	< 1000	12.8	CCCS(=O)(=O)Nc1ccc(F)c(NC(=O)c2csc3c(NCC(C)C)ncnc23)c1F [Example 57, 4-Isobutylamino-thieno[3,2-d] pyrimidine-7-carboxylic acid [2,6-difluoro-3-(propane-1-sulfonylamino)-phenyl]-amide]
	< 1000	902	CCCS(=O)(=O)Nc1ccc(F)c(NC(=O)c2csc3c(NCC(C)(C)C)ncnc23)c1F [Example 58, 4-(2,2-Dimethyl-propylamino)-thieno[3,2-d] pyrimidine-7-carboxylic acid [2,6-difluoro-3-(propane-1-sulfonylamino)-phenyl]-amide]
< 100	< 1000	57.1	CCCS(=O)(=O)Nc1ccc(F)c(NC(=O)c2csc3c(NCCO)ncnc23)c1F [Example 59, 4-(2-Hydroxy-ethylamino)-thieno[3,2-d] pyrimidine-7-carboxylic acid [2,6-difluoro-3-(propane-1-sulfonylamino)-phenyl]-amide]
	< 1000	177	CCCS(=O)(=O)Nc1ccc(F)c(NC(=O)c2csc3c(NCCOC)ncnc23)c1F [Example 60, 4-(2-Methoxy-ethylamino)-thieno[3,2-d] pyrimidine-7-carboxylic acid [2,6-difluoro-3-(propane-1-sulfonylamino)-phenyl]-amide]
< 100	< 1000	1.7	CCCS(=O)(=O)Nc1ccc(F)c(NC(=O)c2csc3c(Nc4cnn(C)c4)ncnc23)c1F [Example 61, 4-(1-Methyl-1H-pyrazol-4-ylamino)-thieno[3,2-d] pyrimidine-7-carboxylic acid [2,6-difluoro-3-(propane-1-sulfonylamino)-phenyl]-amide]
< 100	< 1000	27.1	CCCS(=O)(=O)Nc1ccc(F)c(NC(=O)c2csc3c(Nc4ccccn4)ncnc23)c1F [Example 62, 4-(Pyridin-2-ylamino)-thieno[3,2-d] pyrimidine-7-carboxylic acid [2,6-difluoro-3-(propane-1-sulfonylamino)-phenyl]-amide]
< 100	< 1000	35.4	CCCS(=O)(=O)Nc1ccc(F)c(NC(=O)c2csc3c(Nc4ccccc4)ncnc23)c1F [Example 63, 4-Phenylamino-thieno[3,2-d]pyrimidine-7-carboxylic acid [2,6-difluoro-3-(propane-1-sulfonylamino)-phenyl]-amide]
< 100	< 1000	1.1	O=C(Nc1c(F)ccc(NS(=O)(=O)CCCF)c1F)c1csc2c(NC3CC3)ncnc12 [Example 64, 4-Cyclopropylamino-thieno[3,2-d]pyrimidine-7-carboxylic acid [2,6-difluoro-3-(3-fluoro-propane-1-sulfonylamino)-phenyl]amide]
< 100	< 1000	1.2	CCCS(=O)(=O)Nc1ccc(Cl)c(NC(=O)c2csc3c(NOC)ncnc23)c1Cl [Example 65, 4-Methoxyamino-thieno[3,2-d]pyrimidine-7-carboxylic acid [2,6-dichloro-3-(propane-1-sulfonylamino)-phenyl]amide]
< 100	< 1000	0.2	CCCS(=O)(=O)Nc1ccc(Cl)c(NC(=O)c2csc3c(NC4CC4)ncnc23)c1Cl [Example 66, 4-Cyclopropylamino-thieno[3,2-d]pyrimidine-7-carboxylic acid [2,6-dichloro-3-(propane-1-sulfonylamino)-phenyl]-amide]
< 100	< 1000	0.2	CCCS(=O)(=O)Nc1ccc(Cl)c(NC(=O)c2csc3c(NN4CCOCC4)ncnc23)c1Cl [Example 67, 4-(Morpholin-4-ylamino)-thieno[3,2-d] pyrimidine-7-carboxylic acid [2,6-dichloro-3-(propane-1-sulfonyl-amino)-phenyl]-amide]
< 100	< 1000	1.8	CCCS(=O)(=O)Nc1ccc(Cl)c(NC(=O)c2csc3c(NC4COC4)ncnc23)c1Cl [Example 68, 4-(Oxetan-3-ylamino)-thieno[3,2-d] pyrimidine-7-carboxylic acid [2,6-dichloro-3-(propane-1-sulfonyl-amino)-phenyl]-amide]
< 100	< 1000	2.2	CCCS(=O)(=O)Nc1ccc(Cl)c(NC(=O)c2csc3c(NCC(F)F)ncnc23)c1Cl [Example 69, 4-(2,2-Difluoro-ethylamino)-thieno[3,2-d] pyrimidine-7-carboxylic acid [2,6-dichloro-3-(propane-1-sulfonyl-amino)-phenyl]-amide]
